26 compounds from patent US20240101544A1, “INHIBITORS OF QPCTL AND QPCT” (priority 2022, published 2024) can be followed below.

One test concerns the target QPCTL (Homo sapiens (Human), UniProt Q9NXS2). Kind of test: QPCTL Enzymatic Activity Assay (coupled-enzyme fluorescent assay, H-Gln-AMC substrate). Format: biochemical. Conditions: recombinant truncated human QPCTL 10-12 nM, 10 μM H-Gln-AMC; read-out: QPCTL Inhibition IC50. The procedure: Protein expression was induced when the bacterial culture OD600 was approximately 0.7 using 1 mM IPTG and the cells incubated at 20° C. for approximately 16 hours. The QPCTL was purified using nickel column purification, digested by TEV, followed by a second nickel column purification. The protein was further purified by size-exclusion chromatography using a Superdex™ 75 column. The final protein was concentrated using ultrafiltration tubes at a molecular weight cutoff of 10 kilodaltons and stored frozen in protein buffer (25 mM Tris pH 8.3, 150 mM NaCl).
QPCTL activity was measured in a coupled-enzyme assay using the QPCTL substrate, glutamine-7-amido-4-methylcoumarin (H-Gln-AMC, Bachem), which is converted to pyroglutamyl-AMC by QPCTL. Pyroglutamyl-AMC is then converted to the fluorescent molecule, AMC, by incubation with the human enzyme pyroglutamyl peptidase-1. […] Final concentrations of DMSO and test compounds were 2% and 30-100 μM, respectively. Following the incubation, H-Gln-AMC substrate was diluted in assay buffer and added to each well for a final concentration of 10 μM. The reaction was incubated for 60 min at 37° C., before stopping it by boiling at 100° C. for 5 minutes and cooling the plate at 4° C. for 3 minutes. […] Following incubation, the fluorescence was measured with a plate reader using excitation at 380 nm and emission at 460 nm. […] Concentration-response-curves and IC50 values (Table 17) were generated using curve fit software.

In a further test the target is QPCT (rhQPCT) (Homo sapiens (Human), UniProt Q16769). Kind of test: QPCT Enzymatic Activity Assay (coupled-enzyme fluorescent assay, H-Gln-AMC substrate). It counts as biochemical. Conditions: rhQPCT 10-12 nM, 10 μM H-Gln-AMC; read-out: QPCT Inhibition IC50. The procedure:
QPCT activity was measured in a coupled-enzyme assay using the QPCT substrate, glutamine-7-amido-4-methylcoumarin (H-Gln-AMC, Bachem), which is converted to pyroglutamyl-AMC by QPCT. Pyroglutamyl-AMC is then converted to the fluorescent molecule, AMC, by incubation with the human enzyme pyroglutamyl peptidase-1 (PGPEP-1). […] Following the incubation, H-Gln-AMC substrate was diluted in assay buffer and added to each well for a final concentration of 10 μM. The reaction was incubated for 60 min at 37° C., before stopping it by boiling at 100° C. for 5 minutes and cooling the plate at 4° C. for 3 minutes. […] Following incubation, the fluorescence was measured with a plate reader using excitation at 380 nm and emission at 460 nm. […] Concentration-response-curves and IC50 values (Table 17) were generated using Collaborative Drug Discovery software.

QPCT (rhQPCT), sequence (Q16769 29-361): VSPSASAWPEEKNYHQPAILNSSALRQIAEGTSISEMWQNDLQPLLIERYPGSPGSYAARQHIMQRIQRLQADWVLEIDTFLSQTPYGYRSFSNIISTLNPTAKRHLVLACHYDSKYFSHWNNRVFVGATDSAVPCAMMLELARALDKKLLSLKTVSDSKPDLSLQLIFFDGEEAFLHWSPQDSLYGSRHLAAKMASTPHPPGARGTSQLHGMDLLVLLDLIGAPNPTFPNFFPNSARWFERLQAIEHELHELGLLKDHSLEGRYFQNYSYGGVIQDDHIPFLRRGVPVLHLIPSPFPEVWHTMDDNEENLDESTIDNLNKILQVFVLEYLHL
QPCTL, sequence (Q9NXS2 53-382): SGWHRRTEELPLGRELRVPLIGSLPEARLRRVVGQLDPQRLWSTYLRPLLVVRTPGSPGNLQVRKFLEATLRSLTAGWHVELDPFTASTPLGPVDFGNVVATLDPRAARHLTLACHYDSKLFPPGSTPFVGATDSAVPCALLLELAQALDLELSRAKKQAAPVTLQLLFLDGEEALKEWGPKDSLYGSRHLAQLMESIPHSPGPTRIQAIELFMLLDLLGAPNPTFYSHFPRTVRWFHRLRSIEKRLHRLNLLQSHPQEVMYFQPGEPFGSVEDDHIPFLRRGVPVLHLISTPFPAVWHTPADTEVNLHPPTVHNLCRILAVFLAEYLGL

The IC50 is the concentration that gives 50% inhibition. Consider “6′-fluoro-3-(4-(1-methyl-1H-imidazol-5-yl)piperidin-1-yl)-[2,3′-bipyridine]-4-carbonitrile [Example 134]”, for which the IC50 at QPCTL and on QPCT (rhQPCT) was < 100 nM throughout.
Consider `Cn1cnnc1C1CCN(c2c(-c3ccc(F)nc3)ccc(OC3CCOC3)c2C#N)CC1` (single isomer, unassigned) [Example 89, 3-(6-fluoropyridin-3-yl)-2-(4-(4-methyl-4H-1,2,4-triazol-3-yl)piperidin-1-yl)-6-((tetrahydrofuran-3-yl)oxy)benzonitrile], for which the concentration for half-maximal inhibition (IC50) on QPCTL and at QPCT (rhQPCT) was < 100 nM throughout.
In the case of `Cn1cnnc1C1CCN(c2c(C#N)cccc2-c2cnccn2)CC1` [Example 5, 2-[4-(4-methyl-4H-1,2,4-triazol-3-yl)piperidin-1-yl]-3-(pyrazin-2-yl)benzonitrile], the 50% inhibitory concentration (IC50) at QPCTL and on QPCT (rhQPCT) was 100 to 1000 nM in each case.
With `Cn1cnnc1C1CCN(c2c(C#N)cccc2-c2cnccc2O)CC1` [Example 7, 3-(4-hydroxypyridin-3-yl)-2-[4-(4-methyl-4H-1,2,4-triazol-3-yl)piperidin-1-yl]benzonitrile], the IC50 at QPCTL and at QPCT (rhQPCT) was 1000 to 10000 nM throughout.
Consider `COc1ccncc1-c1cccc(C#N)c1N1CCC(n2ccnc2)CC1` [Example 13, 2-[4-(1H-imidazol-1-yl)piperidin-1-yl]-3-(4-methoxypyridin-3-yl)benzonitrile], for which the values for the IC50 on QPCTL and at QPCT (rhQPCT) were 1000 to 10000 nM and 100 to 1000 nM, respectively.
For `COc1ccncc1-c1cccc(C#N)c1N1CCC(c2cncs2)CC1` [Example 14, 3-(4-methoxypyridin-3-yl)-2-[4-(1,3-thiazol-5-yl)piperidin-1-yl]benzonitrile], the half-maximal inhibitory concentration (IC50) on QPCTL and at QPCT (rhQPCT) was 100 to 1000 nM in each case.
As to `COc1ccncc1-c1cccc(C#N)c1N1CCC(c2cnc(N)s2)CC1` [Example 17, 2-[4-(2-amino-1,3-thiazol-5-yl)piperidin-1-yl]-3-(4-methoxypyridin-3-yl)benzonitrile], the IC50 on QPCTL and on QPCT (rhQPCT) was 100 to 1000 nM each time.
As to `COc1ccncc1-c1cccc(C#N)c1N1CCC(n2cnnc2C)CC1` [Example 18, 3-(4-methoxypyridin-3-yl)-2-[4-(3-methyl-4H-1,2,4-triazol-4-yl)piperidin-1-yl]benzonitrile], the concentration for half-maximal inhibition (IC50) on QPCTL and on QPCT (rhQPCT) was > 10000 nM throughout.
With `Cn1cnnc1C1CCN(c2c(C#N)cccc2-c2cncc3c2OCCN3)CC1` [Example 20, 2-[4-(4-methyl-4H-1,2,4-triazol-3-yl)piperidin-1-yl]-3-{2H,3H,4H-pyrido[4,3-b][1,4]oxazin-8-yl}benzonitrile], the half-maximal inhibitory concentration (IC50) on QPCTL was 100 to 1000 nM; on QPCT (rhQPCT), < 100 nM.
On the same counts, the results for `COc1ccncc1-c1cccc(C#N)c1N1CCC(c2nnc(N)s2)CC1` [Example 21, 2-[4-(5-amino-1,3,4-thiadiazol-2-yl)piperidin-1-yl]-3-(4-methoxypyridin-3-yl)benzonitrile] are 100 to 1000 nM and 100 to 1000 nM.
On the same counts, the results for `CN1CCOc2c(-c3cccc(C#N)c3N3CCC(c4nncn4C)CC3)cncc21` [Example 22, 3-{4-methyl-2H,3H,4H-pyrido[4,3-b][1,4]oxazin-8-yl}-2-[4-(4-methyl-4H-1,2,4-triazol-3-yl)piperidin-1-yl]benzonitrile] are 100 to 1000 nM and 100 to 1000 nM.
On the same counts, the results for `Cn1cnnc1C1CCN(c2c(C#N)cccc2-c2cncc3c2OCCN3CCO)CC1` [Example 23, 3-[4-(2-hydroxyethyl)-2H,3H,4H-pyrido[4,3-b][1,4]oxazin-8-yl]-2-[4-(4-methyl-4H-1,2,4-triazol-3-yl)piperidin-1-yl]benzonitrile] are 100 to 1000 nM and 100 to 1000 nM.
In the case of `Cn1cnnc1C1CCN(c2c(C#N)cccc2-c2ccc(C(F)(F)F)nc2)CC1` [Example 29, 2-[4-(4-methyl-4H-1,2,4-triazol-3-yl)piperidin-1-yl]-3-[6-(trifluoromethyl)pyridin-3-yl]benzonitrile], the IC50 on QPCTL and at QPCT (rhQPCT) was 100 to 1000 nM throughout.
On to `COc1ccncc1-c1cccc(C#N)c1N1CCC(c2cncn2C)CC1` [Example 31, 3-(4-methoxypyridin-3-yl)-2-[4-(1-methyl-1H-imidazol-5-yl)piperidin-1-yl]benzonitrile], for which the IC50 at QPCTL and on QPCT (rhQPCT) was < 100 nM each time.
Take `COc1ccncc1-c1ccc(-c2ccccc2)c(C#N)c1N1CCC(c2nncn2C)CC1` [Example 32, 4-(4-methoxypyridin-3-yl)-3-[4-(4-methyl-4H-1,2,4-triazol-3-yl)piperidin-1-yl]-[1,1′-biphenyl]-2-carbonitrile]: the IC50 at QPCTL and at QPCT (rhQPCT) was < 100 nM in each case.
Turning to `Cn1cnnc1C1CCN(c2c(C#N)cccc2-c2ccc(Cl)nc2)CC1` [Example 40, 3-(6-chloropyridin-3-yl)-2-[4-(4-methyl-4H-1,2,4-triazol-3-yl)piperidin-1-yl]benzonitrile], the IC50 on QPCTL was < 100 nM; on QPCT (rhQPCT), 100 to 1000 nM.
As for `N#Cc1cccc(-c2ccc(F)nc2)c1N1CCC(c2nnc[nH]2)CC1` [Example 49, 2-(4-(4H-1,2,4-triazol-3-yl)piperidin-1-yl)-3-(6-fluoropyridin-3-yl)benzonitrile], the IC50 at QPCTL and on QPCT (rhQPCT) was 100 to 1000 nM throughout.
On to `Cc1ncn(-c2ccc(-c3ccc(F)nc3)c(N3CCC(c4nncn4C)CC3)c2C#N)n1` [Example 50, 3-(6-fluoropyridin-3-yl)-6-(3-methyl-1H-1,2,4-triazol-1-yl)-2-(4-(4-methyl-4H-1,2,4-triazol-3-yl)piperidin-1-yl)benzonitrile], for which the IC50 at QPCTL and at QPCT (rhQPCT) was < 100 nM in each case.
For the compound `Cn1cnnc1C1CCN(c2c(C#N)cccc2-c2cnnc(O)c2)CC1` [Example 52, 3-(6-hydroxypyridazin-4-yl)-2-(4-(4-methyl-4H-1,2,4-triazol-3-yl)piperidin-1-yl)benzonitrile], the IC50 at QPCTL and at QPCT (rhQPCT) was < 100 nM each time.
Turning to `Cc1cc(-c2c(F)ccc(C#N)c2N2CCC(c3nncn3C)CC2)cnc1F` [Example 53, 4-fluoro-3-(6-fluoro-5-methylpyridin-3-yl)-2-(4-(4-methyl-4H-1,2,4-triazol-3-yl)piperidin-1-yl)benzonitrile], the half-inhibitory concentration (IC50) at QPCTL and on QPCT (rhQPCT) was < 100 nM each time.
`[2H]C([2H])([2H])n1cnnc1C1CCN(c2c(-c3ccc(F)nc3)ccc(-c3cnn(C)c3)c2C#N)CC1` [Example 54, 3-(6-fluoropyridin-3-yl)-6-(1-methyl-1H-pyrazol-4-yl)-2-(4-(4-(methyl-d3)-4H-1,2,4-triazol-3-yl)piperidin-1-yl)benzonitrile]: the IC50 on QPCTL and at QPCT (rhQPCT) was < 100 nM throughout.
For `[2H]C([2H])([2H])n1cnnc1C1CCN(c2c(-c3ccnnc3)ccc(-c3cnn(C)c3)c2C#N)CC1` [Example 55, 6-(1-methyl-1H-pyrazol-4-yl)-2-(4-(4-(methyl-d3)-4H-1,2,4-triazol-3-yl)piperidin-1-yl)-3-(pyridazin-4-yl)benzonitrile], the IC50 on QPCTL and at QPCT (rhQPCT) was < 100 nM each time.
On to `[2H]C([2H])([2H])n1cnnc1C1CCN(c2c(-c3ccc(F)nc3)ccc(Cl)c2C#N)CC1` [Example 56, 6-chloro-3-(6-fluoropyridin-3-yl)-2-(4-(4-(methyl-d3)-4H-1,2,4-triazol-3-yl)piperidin-1-yl)benzonitrile], for which the IC50 at QPCTL and at QPCT (rhQPCT) was < 100 nM throughout.
Turning to `[2H]C([2H])([2H])Oc1ccc(-c2ccc(F)nc2)c(N2CCC(c3nncn3C)CC2)c1C#N` [Example 57, 3-(6-fluoropyridin-3-yl)-6-(methoxy-d3)-2-(4-(4-methyl-4H-1,2,4-triazol-3-yl)piperidin-1-yl)benzonitrile], the IC50 on QPCTL and at QPCT (rhQPCT) was < 100 nM each time.
For `CN(C)CCOc1ccc(-c2ccnnc2)c(N2CCC(c3nncn3C)CC2)c1C#N` [Example 58, 6-(2-(dimethylamino)ethoxy)-2-(4-(4-methyl-4H-1,2,4-triazol-3-yl)piperidin-1-yl)-3-(pyridazin-4-yl)benzonitrile], the IC50 at QPCTL and at QPCT (rhQPCT) was < 100 nM each time.
Consider `Cc1cc(-c2c(F)ccc(C#N)c2N2CCC(c3nncn3C)CC2)cnn1` [Example 59, 4-fluoro-2-(4-(4-methyl-4H-1,2,4-triazol-3-yl)piperidin-1-yl)-3-(6-methylpyridazin-4-yl)benzonitrile], for which the IC50 at QPCTL and on QPCT (rhQPCT) was 100 to 1000 nM each time.
